48 compounds from patent publication US10150728B2, “Alkylene derivatives” (Shionogi & Co., Ltd., priority 2013, dated 2018) can be followed below.

The experiment addresses recombinant human ACC2 (Homo sapiens (Human), UniProt O00763). Kind of experiment: Measurement of inhibitory activity on human ACC2 (MALDI-TOF MS, acetyl CoA to malonyl CoA conversion). It is filed as biochemical. The settings on record: Tables 155-159. The source says: Preparation 1: Preparation of Recombinant Human ACC2
After a cDNA encoding human ACC2 (27 amino acid residue to 2458 amino acid residues from the N-terminus) was cloned from human kidney cDNA library (Clontech), human ACC2 gene containing His-tag sequence at 5′ terminus was inserted into pFastBac1 (Invitrogen). Recombinant baculovirus was generated using Bac-to-Bac baculovirus expression system (Invitrogen) according to the manufacturer's protocol. To express human ACC2, Sf-9 cells were infected with recombinant baculovirus. After infected cells were disrupted, the filtrated lysate was subjected to Ni-affinity chromatography and anion-exchange chromatography. The fractions containing human ACC2 protein were pooled as recombinant human ACC2 solution.
The Measurement of Inhibitory Activity on Human ACC1 and the ACC2
Recombinant human ACC1 and recombinant human ACC2, which were prepared by the method mentioned above, were preincubated with assay buffer solution (50 mM HEPES-KOH (pH 7.4), 10 mM magnesium chloride, 6-10 mM potassium citrate, 4 mM reduced form of glutathione, 1.5 mg/ml bovine serum albumin) for one hour. Then, 0.2 μL of each this invention compound solution (in DMSO) were dispensed to 384-well microplate, 5 μL of the preincubated enzyme solution and 5 μL of substrate solution (50 mM HEPES-KOH (pH 7.4), 1 mM ATP, 0.8 mM acetyl CoA and 25-50 mM potassium bicarbonate) were added to microplate. After centrifugation and shaking, the reaction mixtures were incubated in a humidified box at room temperature for 1 to 3 hours. After the incubation, the enzyme reactions were stopped by the addition of EDTA. Then, after the samples were cocrystallized with CHCA (α-cyano-4-hydroxy cinnamic acid) matrices on MALDI target plate, by using the matrix assist laser […] time-of-flight mass spectrometer (MALDI-TOF MS), samples were measured in reflector negative mode. Deprotonated ions of acetyl CoA (AcCoA) of substrate and malonyl CoA (MalCoA) of the reaction product were detected, then, the conversion rates of acetyl CoA to malonyl CoA was calculated by the intensity of [MalCoA-H]−/(Intensity of [MalCoA-H]−+Intensity of [AcCoA-H]−) using each signal strength. […] In addition, potassium citrate concentrations in assay buffer solution, potassium hydrogen carbonate concentrations in substrate solution and incubation time were adjusted by each lot of enzyme.

Chain of recombinant human ACC2 (O00763 27-2458): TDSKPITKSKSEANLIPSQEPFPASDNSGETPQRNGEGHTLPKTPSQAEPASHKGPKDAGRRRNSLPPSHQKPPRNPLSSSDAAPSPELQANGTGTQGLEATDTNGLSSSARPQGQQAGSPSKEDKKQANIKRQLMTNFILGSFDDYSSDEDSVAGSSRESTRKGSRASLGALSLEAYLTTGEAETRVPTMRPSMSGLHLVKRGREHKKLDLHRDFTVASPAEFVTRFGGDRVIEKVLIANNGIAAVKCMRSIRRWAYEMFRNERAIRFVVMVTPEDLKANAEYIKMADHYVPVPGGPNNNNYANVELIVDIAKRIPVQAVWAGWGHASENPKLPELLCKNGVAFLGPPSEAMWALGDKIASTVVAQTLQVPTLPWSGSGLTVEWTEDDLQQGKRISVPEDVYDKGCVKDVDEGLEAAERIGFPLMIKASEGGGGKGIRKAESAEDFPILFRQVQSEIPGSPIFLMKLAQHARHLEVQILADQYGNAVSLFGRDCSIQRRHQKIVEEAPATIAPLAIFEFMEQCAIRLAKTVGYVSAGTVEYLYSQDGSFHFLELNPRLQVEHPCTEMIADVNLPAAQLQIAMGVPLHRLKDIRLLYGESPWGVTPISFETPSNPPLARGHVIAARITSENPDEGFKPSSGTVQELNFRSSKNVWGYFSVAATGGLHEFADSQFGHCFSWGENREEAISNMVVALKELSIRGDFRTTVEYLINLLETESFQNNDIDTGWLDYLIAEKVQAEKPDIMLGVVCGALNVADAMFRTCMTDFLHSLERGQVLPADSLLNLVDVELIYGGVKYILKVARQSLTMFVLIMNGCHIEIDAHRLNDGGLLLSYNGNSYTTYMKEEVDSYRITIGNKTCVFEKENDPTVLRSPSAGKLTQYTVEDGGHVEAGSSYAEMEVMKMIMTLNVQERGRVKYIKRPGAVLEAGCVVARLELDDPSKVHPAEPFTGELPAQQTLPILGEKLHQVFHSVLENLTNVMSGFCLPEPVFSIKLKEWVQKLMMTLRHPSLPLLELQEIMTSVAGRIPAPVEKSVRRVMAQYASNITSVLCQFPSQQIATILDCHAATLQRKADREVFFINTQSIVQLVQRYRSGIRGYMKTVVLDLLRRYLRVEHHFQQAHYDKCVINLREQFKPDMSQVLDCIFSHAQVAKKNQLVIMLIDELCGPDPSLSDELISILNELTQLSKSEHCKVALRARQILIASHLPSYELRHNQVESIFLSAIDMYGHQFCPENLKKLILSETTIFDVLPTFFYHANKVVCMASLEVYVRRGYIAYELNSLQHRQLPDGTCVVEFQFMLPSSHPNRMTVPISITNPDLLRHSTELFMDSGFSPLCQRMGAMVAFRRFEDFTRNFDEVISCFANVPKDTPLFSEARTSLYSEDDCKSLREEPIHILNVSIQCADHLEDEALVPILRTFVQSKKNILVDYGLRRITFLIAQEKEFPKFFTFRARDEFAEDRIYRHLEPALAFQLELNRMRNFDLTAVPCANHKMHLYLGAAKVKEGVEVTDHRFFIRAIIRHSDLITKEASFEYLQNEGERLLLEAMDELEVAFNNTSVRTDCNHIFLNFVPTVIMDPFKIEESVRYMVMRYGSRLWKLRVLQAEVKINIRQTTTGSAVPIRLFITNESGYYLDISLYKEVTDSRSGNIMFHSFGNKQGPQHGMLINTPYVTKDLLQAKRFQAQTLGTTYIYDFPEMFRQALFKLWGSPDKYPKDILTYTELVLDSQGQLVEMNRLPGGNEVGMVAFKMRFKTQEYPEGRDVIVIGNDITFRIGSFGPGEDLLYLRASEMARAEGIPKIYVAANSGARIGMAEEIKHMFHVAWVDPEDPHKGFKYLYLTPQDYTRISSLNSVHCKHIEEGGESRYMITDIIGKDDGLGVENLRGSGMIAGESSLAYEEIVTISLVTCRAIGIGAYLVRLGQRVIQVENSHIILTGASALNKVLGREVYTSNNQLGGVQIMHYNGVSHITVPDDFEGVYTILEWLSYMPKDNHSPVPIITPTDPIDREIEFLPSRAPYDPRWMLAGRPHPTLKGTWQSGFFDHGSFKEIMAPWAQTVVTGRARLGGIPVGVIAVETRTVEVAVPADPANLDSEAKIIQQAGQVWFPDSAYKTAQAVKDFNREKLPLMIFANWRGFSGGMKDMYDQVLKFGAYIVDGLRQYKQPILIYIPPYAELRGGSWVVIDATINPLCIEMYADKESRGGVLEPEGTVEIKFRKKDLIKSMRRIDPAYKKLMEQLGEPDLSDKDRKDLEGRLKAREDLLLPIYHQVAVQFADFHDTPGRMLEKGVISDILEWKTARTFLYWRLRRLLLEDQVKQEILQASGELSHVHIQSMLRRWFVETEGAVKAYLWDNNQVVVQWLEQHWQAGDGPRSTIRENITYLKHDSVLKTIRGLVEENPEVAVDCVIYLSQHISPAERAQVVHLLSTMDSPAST

In general, IC50 refers to the concentration at which inhibition is half-maximal. With `CC(=O)N[C@@H](C)CO[C@H]1C[C@H](COc2c(F)cc3nc(C(C)C)sc3c2Cl)C1` [Compound I-132], the IC50 came out at 48 nM.

In the case of `CC(=O)N[C@@H](C)CO[C@H]1C[C@H](COc2cc3sc(C(C)C)nc3cc2F)C1` [Compound I-133], the IC50 amounted to 77 nM.

Regarding `CC(=O)N[C@@H](C)CO[C@H]1CC[C@H](Oc2ccc3nc(C4(F)COC4)sc3c2F)CC1` [Compound I-134], the IC50 is 23 nM.

For `CC(=O)N[C@@H](C)CO[C@H]1C[C@H](COc2ccc3nc(C(C)C)sc3n2)C1` [Compound I-135], the IC50 came to 16 nM.

In the case of `CC(=O)N[C@@H](C)CO[C@H]1C[C@](F)(COc2ccc3nc(C(C)(F)F)sc3c2F)C1` [Compound I-136], the IC50 was 87 nM.

Regarding `CC(=O)N[C@@H](C)CO[C@H]1C[C@](F)(COc2ccc3nc(C(C)(F)F)sc3c2Cl)C1` [Compound I-137], the IC50 was determined as 403 nM.

Take `CC(=O)N[C@@H](C)CO[C@H]1C[C@H](COc2ccc3nc(C4(F)CC4)sc3c2F)C1` [Compound I-138]: the IC50 is 91 nM.

In the case of `CC(=O)N[C@@H](C)CO[C@H]1C[C@H](COc2ccc3nc(C(C)(F)F)sc3c2)C1` [Compound I-139], the half-inhibitory concentration (IC50) was determined as 90 nM.

As to `CC(=O)N[C@@H](C)CO[C@H]1C[C@H](COc2ccc3nc(OC[C@@H](C)F)sc3c2)C1` [Compound I-140], the IC50 was found to be 144 nM.

As to `CC(=O)N[C@@H](C)CO[C@H]1C[C@H](COc2c(Cl)cc3nc(C(C)C)sc3c2Cl)C1` [Compound I-141], the IC50 came out at 80 nM.

On to `C[C@@H](CO[C@H]1CC[C@H](Oc2ccc3nc(C(C)(F)F)sc3c2F)CC1)NS(C)(=O)=O` [Compound I-142], for which the IC50 is 181 nM.

In the case of `C[C@@H](CO[C@H]1CC[C@H](Oc2ccc3nc(C(C)(F)F)sc3c2F)CC1)NC(=O)CO` [Compound I-143], the IC50 was determined as 120 nM.

`CC(=O)N[C@@H](C)CO[C@H]1C[C@](F)(COc2ccc3nc(C(C)C)sc3n2)C1` [Compound I-144]: the IC50 was 127 nM.

On to `CCC(O)(CC)c1nc2ccc(O[C@H]3CC[C@H](OC[C@H](C)NC(C)=O)CC3)c(F)c2s1` [Compound I-145], for which the IC50 came to 190 nM.

`CC(=O)N[C@@H](C)CO[C@H]1CC[C@H](Oc2ccc3nc(C4(O)CCCC4)sc3c2F)CC1` [Compound I-146]: the IC50 amounted to 44 nM.

Take `CC(=O)N[C@@H](C)CO[C@H]1C[C@H](COc2ccc3nc(C(C)(F)F)sc3n2)C1` [Compound I-147]: the IC50 amounted to 12 nM.

Consider `CC(=O)N[C@@H](C)CO[C@H]1C[C@H](COc2ccc3nc(C(C)(C)O)sc3c2)C1` [Compound I-148], for which the IC50 came out at 404 nM.

As for `CC(=O)N[C@@H](C)CO[C@H]1CC[C@H](Oc2ccc3nc(OCC(C)(C)C#N)sc3c2F)CC1` [Compound I-149], the IC50 amounted to 63 nM.

Turning to `CC(=O)N[C@@H](C)CO[C@H]1CC[C@H](Oc2ccc3nc(OCC4(C#N)CC4)sc3c2F)CC1` [Compound I-150], the IC50 was 36 nM.

Take `CC(=O)N[C@@H](C)CO[C@H]1C[C@H](COc2ccc3nc(OCC(F)F)sc3c2F)C1` [Compound I-151]: the IC50 is 75 nM.

With `CC(=O)N[C@@H](C)CO[C@H]1C[C@H](COc2ccc3nc(OCC(F)(F)F)sc3c2F)C1` [Compound I-152], the IC50 was determined as 64 nM.

On to `CC(=O)N[C@@H](C)CO[C@H]1C[C@H](COc2ccc3nc(OC(C)C)sc3c2F)C1` [Compound I-153], for which the concentration for half-maximal inhibition (IC50) stood at 43 nM.

As to `CC(=O)N[C@@H](C)CO[C@H]1C[C@H](COc2ccc3nc(OC4CC4)sc3c2F)C1` [Compound I-154], the IC50 was found to be 17 nM.

Consider `CC(=O)N[C@@H](C)CO[C@H]1C[C@H](COc2ccc3nc(OC4CCC4)sc3c2F)C1` [Compound I-155], for which the IC50 came to 25 nM.

As for `CC(=O)N[C@@H](C)CO[C@H]1C[C@H](COc2ccc3nc(Oc4ccc(F)cc4)sc3c2F)C1` [Compound I-156], the IC50 is 12 nM.

For the compound `CCOc1nc2ccc(OC[C@H]3C[C@H](OC[C@H](C)NC(C)=O)C3)nc2s1` [Compound I-157], the IC50 was found to be 3 nM.

Consider `C[C@@H](CO[C@H]1CC[C@H](Oc2ccc3nc(C(C)(F)F)sc3c2F)CC1)NC(N)=O` [Compound I-158], for which the IC50 was determined as 48 nM.

Regarding `CC(=O)N[C@@H](C)CO[C@H]1C[C@H](COc2cc3sc(C(C)(C)O)nc3cc2F)C1` [Compound I-159], the IC50 was found to be 641 nM.

On to `CC(=O)N[C@@H](C)CO[C@H]1C[C@](F)(COc2ccc3nc(C(C)(C)O)sc3c2F)C1` [Compound I-160], for which the half-inhibitory concentration (IC50) came to 809 nM.

With `CC(=O)N[C@@H](C)CO[C@H]1CC[C@H](Oc2ccc3nc(O[C@H]4C[C@H](C#N)C4)sc3c2F)CC1` [Compound I-161], the IC50 came to 146 nM.

As for `CC(=O)N[C@@H](C)CO[C@H]1CC[C@H](Oc2ccc3nc(O[C@H]4C[C@@H](C#N)C4)sc3c2F)CC1` [Compound I-162], the IC50 worked out at 74 nM.

With `CCOc1nc2ccc(OC[C@]3(F)C[C@@H](OC[C@H](C)NC(C)=O)C3)nc2s1` [Compound I-163], the IC50 was 39 nM.

With `CCOc1nc2cc(F)c(OC[C@]3(F)C[C@@H](OC[C@H](C)NC(C)=O)C3)nc2s1` [Compound I-164], the half-maximal inhibitory concentration (IC50) was determined as 39 nM.

On to `CCOc1nc2cc(F)c(OC[C@H]3C[C@H](OC[C@H](C)NC(C)=O)C3)nc2s1` [Compound I-165], for which the IC50 came to 7 nM.

Take `C[C@@H](CO[C@H]1CC[C@H](Oc2ccc3nc(C(C)(F)F)sc3c2F)CC1)NC(=O)C1COC1` [Compound I-166]: the IC50 worked out at 30 nM.

Consider `CC(=O)N[C@@H](C)CO[C@H]1CC[C@H](Oc2ccc3nc(N4CC(C)(C)C4)sc3c2F)CC1` [Compound I-167], for which the IC50 was 59 nM.

Take `CC(=O)N[C@@H](C)CO[C@H]1CC[C@H](Oc2cc3sc(OC(C)CF)nc3cc2Cl)CC1` (stereo partly drawn) [Compound I-168]: the IC50 worked out at 95 nM.

`CC(=O)N[C@@H](C)CO[C@H]1C[C@H](COc2ccc3nc(OCC(F)F)sc3n2)C1` [Compound I-169]: the IC50 was found to be 10 nM.

Regarding `CC(=O)N[C@@H](C)CO[C@H]1C[C@H](COc2ccc3nc(OCC(F)(F)F)sc3n2)C1` [Compound I-170], the IC50 amounted to 6 nM.

For the compound `CC(=O)N[C@@H](C)CO[C@H]1C[C@H](COc2ccc3nc(C(C)(C)O)sc3n2)C1` [Compound I-171], the IC50 was determined as 152 nM.

On to `CC(=O)N[C@@H](C)CO[C@H]1C[C@H](COc2ccc3nc(OC4CC4)sc3n2)C1` [Compound I-172], for which the half-maximal inhibitory concentration (IC50) amounted to 13 nM.

As for `CC(=O)N[C@@H](C)CO[C@H]1C[C@H](COc2ccc3nc(OC(C)C)sc3n2)C1` [Compound I-173], the IC50 was 5 nM.

As to `CC(=O)N[C@@H](C)CO[C@H]1C[C@](F)(COc2cc3sc(C(C)C)nc3cn2)C1` [Compound I-174], the IC50 worked out at 931 nM.

As for `CC(=O)N[C@@H](C)CO[C@H]1CC[C@H](Oc2ccc3nc(N4CC(F)(F)C4)sc3c2F)CC1` [Compound I-175], the IC50 is 11 nM.

For the compound `CC(=O)N[C@@H](C)CO[C@H]1CC[C@H](Oc2ccc3nc(N4CCOCC4)sc3c2F)CC1` [Compound I-176], the IC50 came to 42 nM.

Turning to `CCOc1nc2ccc(O[C@H]3CC[C@H](OC[C@H](C)NC(C)=O)CC3)cc2s1` [Compound I-177], the IC50 worked out at 6 nM.

With `CCOc1nc2ccc(O[C@H]3CC[C@H](OC[C@H](C)NC(C)=O)CC3)nc2s1` [Compound I-178], the half-inhibitory concentration (IC50) amounted to 3 nM.

As to `CCOc1nc2cnc(O[C@H]3CC[C@H](OC[C@H](C)NC(C)=O)CC3)cc2s1` [Compound I-179], the IC50 amounted to 28 nM.
